Test results as given in PMC3401593 (Journal of Pharmaceutical Sciences, 2009).
Marks after values point to notes of the source that are not given here.

Columns and labels:
P-gp = assay: in vitro; settings: human, Caco-2, Papp B–A
[1] = mouse, in vivo, sc
[2] = system: mdr1a/b (+/+) and mdr1a/b (−/−) mice; settings: mouse, in vivo
in vitro = settings: human, Caco-2

Compound	Papp B→A (P-gp)	Levels in liver and kidney tissues, mdr1a/b (−/−) versus mdr1a/b (+/+) mice [1]	%MPE, P-gp knockout mice versus wild-type [2]	Area Under the Effect Curve (AUEC), mdr1a/b (+/+) [2]	Area Under the Effect Curve (AUEC), mdr1a/b (−/−) [2]	Time of peak %MPE [2]	Papp at 0.2 μCi/mL (in vitro)	AUEC Ratio mdr1a/b (−/−)/mdr1a/b (+/+) [2]
CCC(=O)C(CC(C)N(C)C)(c1ccccc1)c1ccccc1 (centres unmarked) [Methadone, methadone]	19.4 ± 1.01 ×10⁻⁶ cm/s	no significant differences	significantly higher	1501.85 ± 246.45 % MPE × min	4099.26 ± 488.58 ^a % MPE × min	15 min	–	–
OC[C@@H](O)[C@@H](O)[C@H](O)[C@H](O)CO [mannitol]	–	–	–	–	–	–	5.21 ×10⁻⁶ cm/s	–
buprenorphine	–	–	–	1943.74 ± 326.81 % MPE × min	2854.93 ± 325.27 % MPE × min	45 min	–	1.47 ± 0.3
